Data set [1] concerns the target T1, human 5-HT2A (h5-HT2A) receptor (Homo sapiens, UniProt P28223).
T1 construct: expressed in transfected cells; grown under G418 and hygromycin B selection
Kind of data set: FLIPR assay, human 5-HT2A, agonist mode. The format is cell-based. How it is done:
I. Assessment of the Effect of Exemplary Compounds of Formula I Targeting on Human 5-HT2A (h5-HT2A) Receptor Under Agonist Mode:
I.c. Experimental Methods and Procedures: • 1. Cells were cultured in cell culture medium (DMEM containing 10% FBS, 1×penicillin-streptomycin 300 μg/ml G418 and 100 μg/ml hygromycin B) at 37° C., 5% (v/v) CO2. • 2. One day before the assays, the cells were detached using TrypLE™ Express and cells were counted using cell counter. Only cells with >85% viability were used for the assay. • 3. 20000 cells/well were seeded in 30 μl/well culture medium to a 384-well cell plate and cells were incubated overnight at 37° C., 5% (v/v) CO2. • 4. On the assay day, 2×dye solution was prepared following the manual of the FLIPR® Calcium 6 Assay Kit: i. The dye was diluted with assay buffer (20 mM HEPES in 1×HBSS, PH7.4); ii. Probenecid was added to the final concentration of 5 mM; iii. Vortex vigorously for 1-2 minutes. • 5. Medium was removed from cell plate by flicking the cell plate on towel papers. • 6. 10 μl of assay buffer and 10 μl of 2×dye solution was added to each well of the cell plate. • 7. The cell plate was placed on plate shaker, the plate was agitated at 600 rpm for 2 minutes. The plate was incubated at 37° C. for 2 hours followed by additional 15-minute incubation at 25° C. • 8. 3×compound in assay buffer was prepared: a. Reference compounds were diluted to required concentration with DMSO. The compounds were added to a 384-well compound plate; b. Serial dilutions were performed; c. 10 mM test compounds were added to the compound plate, and 3-fold serial dilutions were performed. d. Transfer 60 nl/well of compounds from source plate to a 384-well compound plate (Corning, 3657) by using an Echo; e. Add 20 μl/well assay buffer to the compound plate; f. Mix the plate on plate shaker for 2 mins; • 9. The cell plate, compound plate and tips were put into FLIPR, 10 μl of 3× compound was transferred to the cell plate per well with FLIPR.
• i. The normalized fluorescence reading (RFU) was calculated as shown below, where Fmax and Fmin stand for maximum and minimum of calcium signal during defined time window: RFU=Fmax−Fmin. • ii. Calculate the percentage activation using following equation:
[formula] • Iii. Calculate EC50 by fitting % activation against log of compound concentrations with Hill equation using XLfit.

Data set [2] is described as follows: Liver microsomes stability, rat. The following applies: for CLint scaled at 2 μM / half-life at 2 μM / microsomal CLint at 2 μM: rat liver microsomes.
Data set [3] is described as follows: Liver microsomes stability, human.
Data set [4] in a line: Liver microsomes stability, mouse. The following applies: for CLint scaled at 2 μM / half-life at 2 μM / microsomal CLint at 2 μM: male, microsomes.
Another data set has as its system Male, C57BL/6J mice. Briefly: Mouse head twitch. The format is in vivo. The following applies: for other behavioural and somatic signs accompanying head twitches: psilocybin at 3 and 10 mg/kg, 5-MeO DMT over 3-30 mg/kg. Here is the method:
The effect of different doses of representative compounds of Formula I are evaluated on head-twitch response (HTR) and other behavioural responses as behavior-based models of psychedelic activity.
Male, C57BL/6J mice (body weight range 20-30 g) were dosed with the appropriate dose of test article, and following a 1-minute pre-treatment time, placed in individual observation chambers. Animals were visually assessed for the incidence head twitches continuously over a 1 hr period. Head twitches were defined as a rapid jerk of the head which was not elicited by an external tactile stimulus (Come and Pickering, Psychopharmacologia, 1967, 11(1): 65-78). Each head twitch was individually counted by a trained observer, and the data expressed as the mean±SEM of 6-10 mice per group. Mice were used in a single experiment only.

Where [5] appears, read: human, pooled human liver microsomes.

This is an account of results in patent US20260083703A1, “INDOLINE DERIVATIVES AS SEROTONERGIC AGENTS USEFUL FOR THE TREATMENT OF DISORDERS RELATED THERETO” (MINDSET PHARMA INC., priority 2022, published 2026).

“And” between values parts separate entries of the source, which are not always exact repeats. Equal entries are not always repeated. Where only a bound is given, the exact number is not on record here.

T1 sequence (P28223 whole entry): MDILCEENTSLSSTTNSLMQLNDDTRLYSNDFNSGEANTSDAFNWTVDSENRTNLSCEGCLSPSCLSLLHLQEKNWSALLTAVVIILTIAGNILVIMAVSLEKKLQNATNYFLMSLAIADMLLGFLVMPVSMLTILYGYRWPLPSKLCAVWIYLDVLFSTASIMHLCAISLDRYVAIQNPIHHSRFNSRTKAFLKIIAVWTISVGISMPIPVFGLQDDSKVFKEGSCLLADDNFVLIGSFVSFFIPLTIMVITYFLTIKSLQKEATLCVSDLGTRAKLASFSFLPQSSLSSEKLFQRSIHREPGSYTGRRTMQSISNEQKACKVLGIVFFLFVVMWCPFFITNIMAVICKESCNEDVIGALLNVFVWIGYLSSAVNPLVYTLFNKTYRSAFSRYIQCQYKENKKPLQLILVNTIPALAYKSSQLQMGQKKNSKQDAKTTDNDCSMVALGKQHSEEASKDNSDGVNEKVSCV

On to `[2H]C([2H])([2H])N1CCC[C@@H]1CC1CNc2cc(OC)c(OC)cc21` (stereo partly drawn) [(R)-I-82, 5,6-dimethoxy-3-(((R)-I-(methyl-d3)pyrrolidin-2-yl)methyl)indoline], for which, in data set [1], a half-maximal response (EC50) required 1560 nM and the “5-HT2A (FLIPR) RFU@10 μM” value turned out to be 479 RFU.
As to `COc1cccc2c1C(C[C@H]1CCCN1C)CN2` (stereo partly drawn) [(R)-I-94, 4-Methoxy-3-(((R)-I-methylpyrrolidin-2-yl)methyl)indoline], it took 9 nM to reach a half-maximal effect in data set [1] (EC50). Besides, in data set [1], the “5-HT2A (FLIPR) RFU@10 μM” value is given as 545 RFU. The “Predicted hepatic CL” value is recorded as 19.77 mL/min/kg in data set [2], 5.63 mL/min/kg in data set [3] (human) and greater than 84.35 mL/min/kg in data set [4]. For the same compound, the “Remaining Percentage” value in data set [2] (With NADPH, 0 min) is 100.00%; in data set [2] (With NADPH, 30 min), 84.38%; in data set [2] (With NADPH, 60 min), 59.71%; in data set [2] (Without NADPH, 0 min), 100.00%; in data set [2] (Without NADPH, 30 min) it was 104.88%; in data set [2] (Without NADPH, 60 min), 96.34%. The “Remaining Percentage” value in data set [3] (human, With NADPH, 0 min) is listed as 100.00%; in data set [3] (human, With NADPH, 30 min), 100.93%; in data set [3] (human, With NADPH, 60 min), 83.11%; in data set [3] (human, Without NADPH, 0 min), 100.00%; in data set [3] (human, Without NADPH, 30 min), 108.38%; in data set [3] (human, Without NADPH, 60 min), 98.20%. Also, the “Remaining Percentage” value in data set [4] (With NADPH, 0 min) came to 100.00%; in data set [4] (With NADPH, 30 min) it was 0.84%; in data set [4] (With NADPH, 60 min), 0.29%; in data set [4] (Without NADPH, 0 min) it was 100.00%; in data set [4] (Without NADPH, 30 min) it was 109.64%; in data set [4] (Without NADPH, 60 min) it was 106.02%. In addition, the values for the CLint scaled at 2 μM in data set [2], in data set [3] (setting [5]) and in data set [4] were 30.8 mL/min/kg, 7.74 mL/min/kg and greater than 1340 mL/min/kg, respectively. In addition, the half-life at 2 μM was 1.34 h in data set [2], 3.74 h in data set [3] (setting [5]) and less than 0.0752 h in data set [4]. Also, the microsomal CLint at 2 μM was 17.2 µL/min/mg in data set [2], 6.17 µL/min/mg in data set [3] (setting [5]) and greater than 307 µL/min/mg in data set [4].
Consider `COc1ccc2c(c1)C(C[C@H]1CCCN1)CN2` (stereo partly drawn) [(R)-I-165, 5-Methoxy-3-(((R)-pyrrolidin-2-yl)methyl)indoline], for which, in data set [1], the EC50 turned out to be 57 nM. Moreover, the “5-HT2A (FLIPR) RFU@10 μM” value in data set [1] is 1,318 RFU. Further, the results for the “Predicted hepatic CL” value in data set [2], in data set [3] (human) and in data set [4] were 31.82 mL/min/kg, 0.00 mL/min/kg and 37.78 mL/min/kg, respectively. The “Remaining Percentage” value in data set [2] (With NADPH, 0 min) is 100.00%; in data set [2] (With NADPH, 30 min), 53.50%; in data set [2] (With NADPH, 60 min), 28.43%; in data set [2] (Without NADPH, 0 min), 100.00%; in data set [2] (Without NADPH, 30 min), 106.00%; in data set [2] (Without NADPH, 60 min), 119.73%. The “Remaining Percentage” value in data set [3] (human, With NADPH, 0 min) turned out to be 100.00%; in data set [3] (human, With NADPH, 30 min) it was 111.72%; in data set [3] (human, With NADPH, 60 min), 114.92%; in data set [3] (human, Without NADPH, 0 min), 100.00%; in data set [3] (human, Without NADPH, 30 min) it was 99.07%; in data set [3] (human, Without NADPH, 60 min), 85.51%. For the same compound, the “Remaining Percentage” value stood at 100.00% in data set [4] (With NADPH, 0 min); 90.44% in data set [4] (With NADPH, 30 min); 63.99% in data set [4] (With NADPH, 60 min); 100.00% in data set [4] (Without NADPH, 0 min); 100.70% in data set [4] (Without NADPH, 30 min); 117.77% in data set [4] (Without NADPH, 60 min). For the same compound, the CLint scaled at 2 μM in data set [2] was determined as 75.1 mL/min/kg; in data set [4], 65.1 mL/min/kg. The half-life at 2 μM in data set [2] turned out to be 0.551 h; in data set [4] it was 1.55 h. Also, the microsomal CLint at 2 μM in data set [2] stood at 41.9 µL/min/mg; in data set [4], 14.9 µL/min/mg. Moreover, the T1/2 entry in data set [3] (human liver microsomes, 2 μM) is “∞”.
Regarding `COc1cccc2c1NCC2C[C@H]1CCCN1C` (stereo partly drawn) [(R)-I-95, 7-Methoxy-3-(((R)-I-methylpyrrolidin-2-yl)methyl)indoline], the “5-HT2A (FLIPR) RFU@10 μM” value in data set [1] is listed as 321 RFU.
Consider `CN(C)CCc1c[nH]c2cccc(O)c12` [Psilocin, reference compound], for which, in data set [1], the “5-HT2A (FLIPR) RFU@10 μM” value is 416 RFU and 308 RFU.
Turning to `CN(C)CCc1c[nH]c2cccc(OP(=O)(O)O)c12` [Psilocybin], the “head twitch response (mean head twitches over 1 hr)” value in the data set on Male, C57BL/6J mice (0.1 mg/kg SC) stood at 4.8; in the data set on Male, C57BL/6J mice (0.3 mg/kg SC), 6.3; in the data set with Male, C57BL/6J mice (1 mg/kg SC), 16.3; in the data set on Male, C57BL/6J mice (3 mg/kg SC) it was 7.8; in the data set with Male, C57BL/6J mice (10 mg/kg SC) it was 5.5. Also, the “dose of peak head twitch response” value in the data set with Male, C57BL/6J mice (SC) is on record as 1 mg/kg. In addition, the “other behavioural and somatic signs accompanying head twitches” value in the data set on Male, C57BL/6J mice (SC) is “decreased locomotion and decreased core body temperature”.
In the case of `COc1ccc2c(c1)C(C[C@@H]1CCCN1C)CN2` (stereo partly drawn) [(S)-I-54, 5-Methoxy-3-(((S)-I-methylpyrrolidin-2-yl)methyl)indoline], the “5-HT2A (FLIPR) RFU@10 μM” value in data set [1] amounted to 444 RFU.
Consider `COc1cc2c(cc1OC)C(C[C@H]1CCCN1C)CN2` (stereo partly drawn) [(R) I-81, 5,6-Dimethoxy-3-(((R)-I-methylpyrrolidin-2-yl)methyl)indoline], for which, in data set [1], the “5-HT2A (FLIPR) RFU@10 μM” value came to 294 RFU.
As to `CN(C)CCc1c[nH]c2ccccc12` [DMT, N,N-dimethyltryptamine, reference compound], in data set [1], the “5-HT2A (FLIPR) RFU@10 μM” value is given as 381 RFU.
On to `COc1ccc2[nH]cc(CCN(C)C)c2c1` [Compound 5-MeO-DMT], for which the “head twitch response (mean head twitches over 1 hr)” value in the data set on Male, C57BL/6J mice (1 mg/kg SC) amounted to 3.0; with Male, C57BL/6J mice (3 mg/kg SC), 4.2; in the data set with Male, C57BL/6J mice (10 mg/kg SC) it was 7.8; with Male, C57BL/6J mice (30 mg/kg SC) it was 12.3. Moreover, the “head twitch response over the dose range tested” value in the data set on Male, C57BL/6J mice (SC, psilocybin 0.1-10, 5-MeO DMT 1-30, (R)-I-54 1-60 mg/kg) is given as “monotonic increase in head twitches”. In addition, the “other behavioural and somatic signs accompanying head twitches” value in the data set with Male, C57BL/6J mice (SC) is given as “other behavioural signs associated with 5-HT syndrome (forepaw treading, straub tail, body twitches, backwards walking) emerged”.
Take `CN1CCC[C@@H]1C[C@@H]1CNc2ccc(F)cc21` [(S),(R)-I-47, (S)-5-fluoro-3-(((R)-I-methylpyrrolidin-2-yl)methyl)indoline]: in data set [1], it took 76 nM to reach a half-maximal effect (EC50) and the “5-HT2A (FLIPR) RFU@10 μM” value was 797 RFU.
